Test results: ChEMBL document CHEMBL3120139, “Design, synthesis, pharmacological evaluation and computational studies of 1-(biphenyl-4-yl)-2-[4-(substituted phenyl)-piperazin-1-yl]ethanones as potential antipsychotics” (Eur J Med Chem, 2014)

Experiments:
[1] = system: Mus musculus; experiment: Induction of catalepsy in albino mouse at 15 mg/kg, ip relative to control; format: organism-based; parameters: dose 15 mg/kg, route intraperitoneal; conditions: in vivo
[2] = system: Mus musculus; experiment: Antiserotogenic activity in albino mouse assessed as inhibition of 5HTP-induced head twitches at 15 mg/kg, ip measured for 5 mins at every 5 mins interval for 1 hr relative to control; format: functional; conditions: route intraperitoneal
[3] = system: Mus musculus; experiment: Antipsychotic activity in albino mouse assessed as inhibition of apomorphine-induced climbing behaviour at 15 mg/kg, ip measured after 10 mins at 5 mins interval for 30 mins relative to control; format: functional; conditions: route intraperitoneal

Row | Compound | Activity [1] [%] | inhibition in vivo at 15 mg/kg [2] [%] | inhibition in vivo at 15 mg/kg [3] [%]
1 | COc1ccccc1N1CCN(CC(=O)c2ccc(-c3ccccc3)cc2)CC1 | 29.43 | 61.3 | 53.4
2 | Cc1cccc(N2CCN(CC(=O)c3ccc(-c4ccccc4)cc3)CC2)c1C | 29.87 | 35.4 | 40.7
3 | O=C1CCc2ccc(OCCCCN3CCN(c4cccc(Cl)c4Cl)CC3)cc2N1 [ARIPIPRAZOLE] | 26.86 | 94.5 | 61.1
4 | O=C(CN1CCN(c2ccccc2)CC1)c1ccc(-c2ccccc2)cc1 | 34.53 | 28 | 31.9
5 | O=C(CN1CCN(c2ccc(Cl)c(Cl)c2)CC1)c1ccc(-c2ccccc2)cc1 | 30.5 | 38.8 | 25.7
6 | O=C(CN1CCN(c2ccc(F)cc2)CC1)c1ccc(-c2ccccc2)cc1 | 30.48 | 24.5 | 23.4
7 | O=C(CN1CCN(c2ccc(Cl)cc2)CC1)c1ccc(-c2ccccc2)cc1 | 35.17 | 29.2 | 26.4
8 | Cc1ccc(N2CCN(CC(=O)c3ccc(-c4ccccc4)cc3)CC2)cc1 | 38.66 | 29.8 | 33.3
9 | Cc1cccc(N2CCN(CC(=O)c3ccc(-c4ccccc4)cc3)CC2)c1 | 33.82 | 29.6 | 33.6
10 | O=C(CN1CCN(c2cccc(C(F)(F)F)c2)CC1)c1ccc(-c2ccccc2)cc1 | 31.84 | 32.6 | 26.4
11 | O=C(CN1CCN(c2cccc(Cl)c2Cl)CC1)c1ccc(-c2ccccc2)cc1 | 28.97 | 38.3 | 42.8
12 | Cc1ccccc1N1CCN(CC(=O)c2ccc(-c3ccccc3)cc2)CC1 | 35.84 | 26.7 | 38.5
13 | O=C(CN1CCN(c2ccccc2Cl)CC1)c1ccc(-c2ccccc2)cc1 | 42.31 | 35.2 | 38.2
14 | COc1ccc(N2CCN(CC(=O)c3ccc(-c4ccccc4)cc3)CC2)cc1 | 59.28 | 36.1 | 32.9
15 | O=C(CN1CCN(c2cccc(Cl)c2)CC1)c1ccc(-c2ccccc2)cc1 | 31.84 | 32.6 | 29.9
